{"source": "patent US4837342A", "about": "“Prostacyclin analogue, and blood circulation improving agent and anti-ulcer composition containing it as active ingredient” (Sagami Chemical Research Center, priority 1986, dated 1989)", "key": {"[1]": {"test_system": "Blood platelet (ADP agglutination)", "experiment": "Blood platelet agglutination inhibiting activity (ADP-induced), washed rabbit platelet suspension", "type": "cell-based, rabbit (Japanese white male rabbits)", "details": "Oryctolagus cuniculus, Platelet; ADP 10 μM; concentration suppressing agglutination to 50%; read-out: Platelet agglutination inhibiting activity ED50, ADP agglutination", "method": "Blood platelet aggutination inhibiting activity\nJapanese white male rabbits having a weight of from 2.0 to 2.5 kg were used.\nUnder anesthesia with sodium Pentobarbital, blood was sampled from the carotid artery, and mixed with a 1/7 volume of an anticoagulant citric acid dextrose solution. Then, the mixture was subjected to centrifugal separation at 140×g for 15 minutes, whereupon the supernatant (platelet rich plasma:PRP) was obtained. PRP was subjected to centrifugal separation at 1,300×g for 7 minutes. The blood platelet pellets thus obtained were washed with a HEPES buffer solution (pH 6.5) for washing blood platelets, and subjected to centrifugal separation at 1,300×g for 7 minutes. The blood platelet pellets washed twice under such condition, were suspended in a suspending liquid (a buffer solution for washing blood platelets, which contains 0.1% of human fibrinogen, 1.8 mM of CaCl2 and 1.2 mM of MgCl2) to obtain a blood platelet suspension having a concentration of from 5×10^8 to 8×10^8 platelets/ml.\nThe platelet agglutination ability was measured by means of an agglutination meter. To 380 μl of the platelet suspension, 10 μl of a test compound or a solvent as the control, was added. Three minutes later, 10 μl of a platelet agglutinating substance (10 μM of ADP or 1 μg/ml of collagen, as the final concentration) was added thereto to induce agglutination.\nThe blood platelet agglutination inhibiting activity of each test compound was represented by ED50 (i.e. the concentration of the test compound where the platelet agglutination is suppressed to 50%)."}, "diastolic blood pressure [2]": {"test_system": "diastolic blood pressure", "experiment": "Hypotensive activity, anesthetized dog", "type": "in vivo, crossbred adult dog", "details": "Canis lupus familiaris, iv, read-out: Hypotensive activity ED50 (dose reducing diastolic blood pressure by 50 mmHg); heading: Hypotensive activity ED50; dog; femoral vein; Table 1", "method": "A male or female crossbred adult dog having a weight of from 9 to 14 kg was anesthetized by intraveous administration of sodium Pentobarbital. Then, the left carotid was exposed under artificial respiration, and the blood pressure was measured by using an electric blood pressure meter. […]"}, "Ethanol ulcer": {"test_system": "Ethanol ulcer", "experiment": "Ethanol ulcer inhibiting activity", "type": "in vivo, Male wister rats", "details": "rat; oral administration of 30 μg/kg", "method": "Ethanol ulcer inhibiting activity\nMale wister rats having a weight of from 170 to 270 g were put into individual cages and starved for 24 hours. During this starvation period, the rats were allowed to drink water freely. A test compound or PGE2 as a comparative compound was orally administered in an amount of 3, 10 or 30 μg/kg, and 30 minutes later, 1 ml of 99.5% ethanol was orally administered to each rat. One hour after the ethanol administration, each rat was filled by cervical vertebral luxation, and the stomach was taken out. A 1% formaline solution was injected into the stomach in an amount of about 8 ml, and the stomach was fixed in the formaline solution for 30 minutes. After the fixing, the stomach was severed along the greater curvature, and the mucous membrane surface of the stomach was gently washed with flowing water. Then, the total length of damages appearing on the gastric glandular portion was obtained and used as the ulcer index.\nThe ethanol ulcer inhibiting activity of a test compound was represented by ED50 (i.e. the dose of the test compound at which the ulcer was inhibited by 50% relative to the ulcer index of the non-treated group). To the non-treated group, the solvent was administered."}, "Hydrochloric acid ulcer": {"test_system": "Hydrochloric acid ulcer", "experiment": "Hydrochloric acid ulcer inhibiting activity", "type": "in vivo, wister rats", "details": "rat; oral administration of 30 μg/kg", "method": "Hydrochloric acid ulcer inhibiting activity\nMale wister […] having a weight of from 190 to 240 g were used. The rats were starved in the same manner as in Test Example 6, and the test compounds and PGE2 were, respectively, orally administered in an amount of 30 μg/kg, and 30 minutes later, 1 ml of 0.6N hydrochloric acid was orally administered. Thirty minutes after the hydrochloric acid administration, each rat was killed by cervical vertebral luxation. Then, the stomach was taken out and fixed, and the ulcer index was obtained, in the same manner as in Test Example 6. The hydrochloric acid ulcer inhibiting activity of a test compound was represented by the inhibiting percentage (i.e. the percentage of the ulcer index of the treated group to the ulcer index of the non-treated group). To the non-treated group, the solvent was administered."}, "diastolic blood pressure [3]": {"test_system": "diastolic blood pressure", "details": "background statement; cited from earlier work"}, "[4]": {"details": "background; cited from earlier work"}}, "data": [{"smiles": "CCCCC[C@H](O)/C=C/[C@@H]1[C@H]2C/C(=C/CCCC(=O)O)O[C@H]2C[C@H]1O", "note": "[Prostacyclin, (5Z,13E)-(9α,11α,15S)-6,9-epoxy-11,15-dihydroxyprosta-5,13-diene acid]", "values": [{"measurement": "IC50", "setting": "[1]", "result": 2.9, "unit": "nM"}, {"measurement": "ED (50 mmHg)", "setting": "diastolic blood pressure [2]", "result": 0.24, "unit": "µg/kg"}, {"measurement": "Ethanol ulcer inhibition (in words)", "setting": "Ethanol ulcer", "result": "No inhibiting activity"}, {"measurement": "Hydrochloric acid ulcer inhibition (in words)", "setting": "Hydrochloric acid ulcer", "result": "No inhibiting activity"}, {"measurement": "Hypotensive activity of prostacyclin (in words)", "setting": "diastolic blood pressure [3]", "result": "remarkable hypotensive activities"}, {"measurement": "Chemical stability (in words)", "setting": "[4]", "result": "very unstable"}]}]}
